In patent publication US20050148534A1, “Small molecule compositions and methods for increasing drug efficiency using compositions thereof” (priority 2003, published 2005):
Like-named read-outs stand apart in the source and are kept apart here.

Tests used:
tubulin = experiment: Fluorescence-based microtubule polymerization assay (MPA); format: biochemical; details: mean percentage of paclitaxel or vinblastine activity; 0.75-10 micromolar
In short: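 Tubulin polymerization was followed by fluorescence (ex 360/em 405 nm) in a commercial kit with 1 mg/ml BSA added to every assay, glycerol being omitted for paclitaxel conjugates. Parent drugs and conjugates were tested at 0.75, 1.5, 3 and 10 micromolar final. Curves from the linear range of the dose responses were compared.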

MCF-7 breast carcinoma [1] = experiment: Cytotoxicity assay (monolayer), MCF-7; format: cell-based; details: Homo sapiens, MCF7
Procedure: (§1) Statistical Assoc., 81, 991-999, 1986.
(§2) Monolayer assays with tumor cell lines (MCF-7 breast carcinoma and HT-29 colorectal carcinoma from ATCC) were carried out in triplicate in 96-well plates with RPMI1640 medium containing 5% fetal bovine serum, 100 U/ml penicillin and 100 μg/ml streptomycin. Normal human foreskin fibroblasts (HFF #CC-2509) were from Cambrex and were cultured in FGM-2 medium. Exponentially growing cells (5,000 MCF-7 or HT-29; 1,500 HFF) were plated in 100 μl medium and incubated overnight (5% CO2, 37° C.). Compounds (20 pM to 20 μM final concentration, 6-8 doses) and vehicle (DMSO) controls were added and the incubation was continued for an additional 72 hours. Final cell density was determined by incubating cultures with 25 μl AlamarBlue reagent (BioSource, Camarillo, Calif.) for 4 hours, followed by determination of fluorescence at excitation of 544 nm and emission of 590 nm with a SpectroMax Gemini EM fluorescence plate reader (Molecular Devices, Sunnyvale, Calif.). EC50 values were generated from dose-response curves by a 4-parameter method using Softmax PRO software. Mean EC50s (±SD) represent the average of all tests carried out for all lots of a given compound. […] Statistical Assoc., 81, 991-999 (1986).

[2] = system: HT-29 colorectal carcinoma; experiment: Cytotoxicity assay (monolayer), HT-29; format: cell-based; details: Homo sapiens
Procedure: as §1, §2

HUVEC = experiment: Cytotoxicity assay (monolayer), HUVEC; format: cell-based; details: Homo sapiens, read-out: HUVEC (EC50 Ave) ML
[3] = system: Normal human foreskin fibroblasts (HFF); experiment: Cytotoxicity assay (monolayer), HFF; format: cell-based; details: Fibroblast
Procedure: as §1, §2

MCF7 = experiment: Cytotoxicity assay, MCF7 SSA (SSA not explained); format: cell-based; details: Homo sapiens
HT29 = experiment: Cytotoxicity assay, HT29 SSA (SSA not explained); format: cell-based; details: Homo sapiens, HT-29; read-out: HT29 (EC50 Ave) SSA
[4] = Serum stability in RPMI1640 medium containing 10% fetal bovine serum; format: in vitro ADME
Procedure: The stability of conjugates was measured in RPMI1640 cell culture medium containing 10% fetal bovine serum. The serum-containing medium was pre-warmed at 37° C. for 3 min prior to addition of test articles. Test articles, prepared in DMSO as 5 mM stocks, were added to the cell culture media to a final concentration of […]. Aliquots ([…]) were withdrawn in triplicate at 0, 4, 8, 24 and 72 hours and combined with the same volume of ice-cold acetonitrile to terminate the reaction. The mixture was centrifuged at 2,000×g for 10 minutes. One part of the supernatant was mixed with four parts of deionized water to bring down the percentage of organic solvent. The diluted samples were then assayed by LC/MS for the test article. The natural log of the percent remaining was plotted versus time. A linear fit was used to determine the rate constant. The fit was truncated after the percent of remaining test article was less than 10%. The elimination half-lives associated with the disappearance of test articles were determined to compare their relative stability. The assays were carried out by Absorption Systems (Exton, Pa.).

[5] = system: breast carcinoma, colon carcinoma and leukemia; experiment: Cytotoxicity of drug-thymidine conjugates (Example 22); format: cell-based
[6] = Cytotoxicity assay (soft agar), MCF-7; details: human
MCF-7 breast carcinoma [7] = experiment: Cytotoxicity assay (soft agar), MCF-7; details: Homo sapiens
[8] = Cytotoxicity assay (soft agar), HT-29; details: human
[9] = system: HT-29 colorectal carcinoma; experiment: Cytotoxicity assay (soft agar), HT-29; details: Homo sapiens

CC(=O)O[C@H]1C(=O)[C@@]2(C)[C@H]([C@H](OC(=O)c3ccccc3)[C@]3(O)C[C@H](OC(=O)[C@H](O)[C@@H](NC(=O)c4ccccc4)c4ccccc4)C(C)=C1C3(C)C)[C@]1(OC(C)=O)CO[C@@H]1C[C@@H]2O [Paclitaxel]
Ave. MPA Act (tubulin): C (C>100) | EC50 (MCF-7 breast carcinoma [1]; mean ± SD, read-out: MCF-7 Monolayer EC50): 5 ± 2 nM | EC50 (MCF-7 breast carcinoma [1]; monolayer, 72 hours, AlamarBlue, read-out: MCF7 (EC50 Ave) ML): < 100 nM | EC50 ([2]; mean ± SD, read-out: HT-29 Monolayer EC50): 5 ± 3 nM | EC50 ([2]; monolayer, 72 hours, AlamarBlue, read-out: HT29 (EC50 Ave) ML): < 100 nM | EC50 (HUVEC): < 100 nM | EC50 ([3]; mean ± SD, read-out: HFF Monolayer EC50): 9 ± 5 nM | EC50 ([3]; monolayer, 72 hours, AlamarBlue, read-out: HFF (EC50 Ave) ML): < 100 nM | EC50 (MCF7): < 100 nM | EC50 (HT29): < 100 nM | Relative Percent Remaining at 0 hr ([4]; 37° C., medium with 10% fetal bovine serum, 0 hr): 100% | Relative Percent Remaining at 4 hr ([4]; 37° C., medium with 10% fetal bovine serum, 4 hr): 73% | Relative Percent Remaining at 8 hr ([4]; 37° C., medium with 10% fetal bovine serum, 8 hr): 59% | Relative Percent Remaining at 24 hr ([4]; 37° C., medium with 10% fetal bovine serum, 24 hr): 28% | Relative Percent Remaining at 72 hr ([4]; 37° C., medium with 10% fetal bovine serum, 72 hr): <3.0% | half-life ([4]; bovine): 11 h | EC50 [5]: 5 to 8 nM | selectivity ratio [6]: 1.4 | EC50 (MCF-7 breast carcinoma [7]; MCF7, read-out: MCF7 (EC50 Ave) SA): < 100 nM | EC50 (MCF-7 breast carcinoma [7]; MCF7, read-out: MCF-7 Soft Agar EC50): 6 ± 3 nM | selectivity ratio [8]: 0.6 | EC50 ([9]; HT-29, read-out: HT29 (EC50 Ave) SA): < 100 nM | EC50 ([9]; HT-29, read-out: HT-29 Soft Agar EC50): 15 ± 2 nM
